Here are results for 8 compounds from ChEMBL document CHEMBL1201862, “PubChem BioAssay data set” (2004).

Holding throughout (assay): DTP human tumour cell line panel, 48 h
The subject of assay [1] is RPMI-8226.
For assay [2], the system named is MCF7.
For assay [3], the system named is SK-MEL-5.
Assay [4] deals with SR.
Assay [5] deals with 786-0.
For assay [6], the system named is PC-3.
The test system of assay [7] is A549.
Assay [8] has as its system U-251.
Assay [9] has as its system SW-620.
The test system of assay [10] is HOP-92.
Assay [11] concerns SK-OV-3.
Assay [12] has as its system COLO 205.
The test system of assay [13] is HCT-15.
The subject of assay [14] is OVCAR-4.
For assay [15], the system named is UO-31.
Assay [16] has as its system SK-MEL-28.
Assay [17] deals with A498.
For assay [18], the system named is HCT-116.
The test system of assay [19] is OVCAR-5.
The test system of assay [20] is RXF 393.

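Briefly, cells in 96-well plates were exposed to five compound concentrations for 48 h, and endpoints were estimated by linear interpolation. GI50 is the concentration that inhibits growth by half.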 The source made the active and inactive calls. Rule as the data show it: active = GI50 up to about 1.1 µM and inactive = higher.

By GI50 is commonly meant the concentration that inhibits growth by half.

Regarding `CC(=O)OC1CCn2c1nc1c2C(=O)C=C(N2CC2)C1=O` (stereo not drawn), the 50% growth inhibitory concentration (GI50) in assay [1] is 0.251 µM (active); in assay [2] it was 0.173 µM (active); in assay [3], 0.142 µM (active); in assay [4], 0.0953 µM (active); in assay [5] it was 0.108 µM (active); in assay [6], 0.931 µM (active). The GI50 in [7] was 1.41 µM (inactive); in assay [8] it was 0.218 µM (active); in assay [9] it was < 0.0211 µM (active); in assay [10] it was 0.378 µM (active); in [11], 2.15 µM (inactive); in assay [12] it was 0.0697 µM (active). Moreover, the GI50 in [13] was 0.403 µM; in assay [14], 0.0746 µM (active); in assay [15] it was 0.103 µM (active); in assay [16], 0.0314 µM (active); in assay [17], 0.218 µM (active); in [18], 0.153 µM (active). The GI50 was 0.774 µM (active) in assay [19] and 0.0748 µM (active) in [20].

As to `Oc1c(CN2CCCC2)ccc2cccnc12`, the GI50 in assay [1] is 16.7 µM (inactive); in assay [2] it was 29.6 µM (inactive); in [3] it was 12.7 µM (inactive); in [4], 12.2 µM (inactive); in [5] it was 17.9 µM (inactive); in assay [6], > 39.5 µM (inactive). The GI50 in assay [7] was 22.6 µM (inactive); in assay [8], 16.2 µM (inactive); in assay [9], 24.2 µM (inactive); in assay [10], 26.4 µM (inactive); in assay [11] it was 25.9 µM (inactive); in [12], 25.9 µM (inactive). Also, the concentration for 50% growth inhibition (GI50) in assay [13] was 2.84 µM; in assay [14], 14.9 µM (inactive); in assay [15], 3.44 µM (inactive); in assay [16], 22.5 µM (inactive); in [17], 29.9 µM (inactive); in assay [18], 14.1 µM (inactive). The figures for the GI50 in assay [19] and in assay [20] were 31.6 µM (inactive) and > 67.9 µM (inactive), respectively.

Take `CCOc1ccnc2c(OC)c(C)c3nc4ccccc4nc3c12`: the GI50 is > 100 µM (inactive) in assay [1]; 26 µM (inactive) in assay [2]; > 100 µM (inactive) in assay [3]; 18.6 µM (inactive) in [4]; > 100 µM (inactive) in [5]; 89.3 µM (inactive) in assay [6]. Also, the GI50 in [7] is > 100 µM (inactive); in [8], > 100 µM (inactive); in assay [9], > 100 µM (inactive); in assay [10], 93.8 µM (inactive); in assay [11], > 100 µM (inactive); in [12] it was > 100 µM (inactive). Further, the 50% growth inhibitory concentration (GI50) in assay [13] is 12.8 µM; in assay [14] it was > 100 µM (inactive); in assay [15], > 100 µM (inactive); in [16], > 100 µM (inactive); in [17], > 100 µM (inactive); in [18] it was > 100 µM (inactive). Further, the GI50 is > 100 µM (inactive) in assay [19] and 8.39 µM (inactive) in [20].

With `CC1(CC(=O)O)OC2CCCCCC2O1.NCc1ccccc1` (stereo not drawn), the GI50 in assay [1] was 31.9 µM (inactive); in assay [2], > 100 µM (inactive); in [3], 88.1 µM (inactive); in [4], > 100 µM (inactive); in assay [5] it was > 100 µM (inactive); in [6], > 100 µM (inactive). Besides, the GI50 was > 100 µM (inactive) in assay [7]; 91.4 µM (inactive) in [8]; > 100 µM (inactive) in assay [9]; 51.4 µM (inactive) in assay [10]; > 100 µM (inactive) in [11]; > 100 µM (inactive) in assay [12]. The GI50 in assay [13] is greater than 100 µM; in assay [14] it was > 100 µM (inactive); in assay [15], > 100 µM (inactive); in [16], > 100 µM (inactive); in assay [17], > 100 µM (inactive); in assay [18] it was 74.8 µM (inactive). Besides, the GI50 in assay [19] and in assay [20] was > 100 µM (inactive) in each case.

In the case of `Cn1cc(-c2n[nH]c(-c3ccc(Cl)cc3)nc2=O)c2ccccc21`, the GI50 is 3.23 µM (inactive) in [1]; 1.8 µM (inactive) in assay [2]; 1.35 µM (inactive) in assay [3]; 0.774 µM (active) in assay [4]; 3.38 µM (inactive) in [5]; 2.3 µM (inactive) in assay [6]. Moreover, the GI50 in [7] is 3.94 µM (inactive); in assay [8], 2.31 µM (inactive); in assay [9] it was 1.91 µM (inactive); in assay [10], 12.3 µM (inactive); in assay [11], 4.31 µM (inactive); in assay [12] it was 2.07 µM (inactive). Moreover, the GI50 is 1.1 µM in assay [13]; 15.1 µM (inactive) in [14]; 1.06 µM (active) in assay [15]; > 71.1 µM (inactive) in [16]; 2.04 µM (inactive) in [17]; 2.12 µM (inactive) in assay [18]. The GI50 in [19] is 4.34 µM (inactive); in assay [20], 2.4 µM (inactive).

For the compound `CCC1=CC(OCc2ccccc2)C(CCN(Cc2ccccc2)C(=O)OCc2ccccc2)C1` (stereo not drawn), the GI50 in [1] is 8.59 µM (inactive); in assay [2], 16.1 µM (inactive); in assay [3], 15.4 µM (inactive); in assay [4] it was 17.3 µM (inactive); in assay [5] it was 19.3 µM (inactive); in assay [6] it was 14.3 µM (inactive). Further, the GI50 in assay [7] was 15.5 µM (inactive); in assay [8], 19.8 µM (inactive); in assay [9], 18.4 µM (inactive); in [10] it was 13.5 µM (inactive); in [11], 20 µM (inactive); in assay [12], 20.8 µM (inactive). Further, the GI50 was 13.6 µM in [13]; 13.7 µM (inactive) in [14]; 14.6 µM (inactive) in [15]; 20.7 µM (inactive) in assay [16]; 16 µM (inactive) in assay [17]; 13.5 µM (inactive) in assay [19]. Moreover, the GI50 in [20] was 3.5 µM (inactive).

`Cn1c([N+](=O)[O-])cnc1CN1CCN(CCO)CC1`: the GI50 in assay [1], in assay [2], in [3], in assay [4], in [5] and in [6] was > 100 µM (inactive) throughout. The GI50 in assay [7], in assay [8], in assay [9], in assay [10], in assay [11] and in [12] was > 100 µM (inactive) in each case. Moreover, the GI50 in assay [13] was greater than 100 µM; in [14], > 100 µM (inactive); in assay [15], > 100 µM (inactive); in assay [16] it was > 100 µM (inactive); in [17], > 100 µM (inactive); in assay [18], > 100 µM (inactive). The GI50 in assay [19] and in [20] was > 100 µM (inactive) throughout.

Turning to `C[C@]12C[C@H](c3ccccc3)Nc3ccccc3N1C(c1ccccc1)=NO2`, the GI50 in assay [1] is 47.2 µM (inactive); in [2], 52.6 µM (inactive); in assay [3], 30.1 µM (inactive); in [4], 3.39 µM (inactive); in assay [5], 60.1 µM (inactive); in [6], 40.4 µM (inactive). For the same compound, the GI50 was > 100 µM (inactive) in assay [7]; 96.4 µM (inactive) in assay [8]; > 100 µM (inactive) in assay [9]; 30.1 µM (inactive) in assay [10]; > 100 µM (inactive) in assay [11]; 78.7 µM (inactive) in [12]. For the same compound, the concentration for 50% growth inhibition (GI50) in assay [13] is 67.9 µM; in [14], 52 µM (inactive); in [15], 41.4 µM (inactive); in assay [17], > 100 µM (inactive); in assay [18], 60.8 µM (inactive); in assay [19] it was > 100 µM (inactive). In addition, the GI50 in [20] was > 100 µM (inactive).
